In patent US20100298377A1, “NOVEL SUBSTITUTED INDAZOLES, THE PREPARATION THEREOF AND USE OF SAME IN THERAPEUTICS” (SANOFI-AVENTIS, priority 2007, published 2010):

Assays:
[1] = test system: LNCaP clone FGC cells (human prostate carcinoma cells); test: Proliferation of LNCaP cells, intracellular ATP, CellTiter-Glo test; assay type: cell-based; details: Homo sapiens, LNCaP-Clone-FGC, 96 hours
Text: (§1) b. Study of the Proliferation of Human Tumoral MIA PaCa-2, C-433, LnCaP and MCF7 Cells via Assay of the Intracellular ATP Using the Celltiter-Glo™ Test
(§2) The kit CellTiter-Glo™ for measuring cell viability via luminescence ([…]) is a homogeneous method for determining the number of viable cells in culture, based on quantification of the ATP present in the cells, and which indicates the presence of metabolically active cells.
(§3) The cell lines used in this test were the following: MIA PaCa-2 cells (human pancreatic carcinoma cells, ATCC, CRL-1420), C-433 cells (human Ewing sarcoma cells, DSMZ, ACC 268), LNCaP clone FGC cells (human prostate carcinoma cells, ATCC, CRL-1740), MCF7 cells (human breast carcinoma cells, ECACC, #86012803). The cells MIAPaCa-2 and LNCaP were cultured in D-MEM culture medium (Invitrogen Gibco, #419656-039) containing 10% foetal calf serum (FCS, Invitrogen Gibco, #10500-064) and 2 mM L-Glutamine (Invitrogen Gibco, #25030-024); the C-433 cells were cultured in MCCoy's 5A culture medium (Invitrogen Gibco, #26600-023)/RPMI 1640 (Invitrogen Gibco, #31870-025) (50/50) containing 10% FCS and 2 mM L-glutamine; the MCF7 cells were cultured in EMEM culture medium (EMEM, Biowhittaker, Lonza, #BE12-662F) containing 10% FCS and 2 mM L-Glutamine.
(§4) Evaluation of the Cell Viability via Luminescence Measurement: Celltiter-Glo™ Test
(§5) On day 1, the cells were inoculated at 1000 (C-433), 2500 (MCF7) and 10000 (LNCaP and MIA PaCa-2) cells per well in black-bottomed 96-well microplates (NUNC fluoronunc, Fisherbioblock 2311K) in 135 μl of whole culture medium and incubated at 37° C., 5% CO2, for 3 to 6 hours. The cells were then incubated with increasing concentrations of molecules diluted in dimethyl sulfoxide (DMSO, Sigma D2650). The molecules were added in a volume of 15 μl of a 10-fold concentrated solution in a final volume of 150 μl, the final percentage of DMSO being 0.1%. The cells were incubated at 37° C., 5% CO2, for 96 hours. After 4 days of treatment with the molecules, the CellTiter-Glo™ was performed by following the manufacturer's instructions (Kit Celltiter-Glo Luminescent, PROMEGA #G7571). Briefly, the cell plates were equilibrated for about 30 minutes at RT and 100 μl per well of Celltiter-Glo reagent were added. The cells were incubated for 1 hour at RT for lysis of the cells and stabilization of the signal. The intracellular ATP was quantified by measuring the luminescence in rlu units (relative luminescence units), 96 hours after initiation of the treatment, using a luminescence counter (Wallac). The tests were performed in six replicates.
(§6) i) the mean±s.e.m. of each series of well replicates was calculated;
(§7) ii) the maximum response is given by positive control wells containing untreated cells; this control was performed in 12 replicates;
(§8) iii) the minimum response is given by cell-free and untreated negative control wells; this control was performed in 6 replicates;
(§9) iv) using these maximum (100%) and minimum (0%) response values, respectively, the data were normalized to give a percentage relative to the maximum response;
(§10) The IC50 values were calculated by […] with the XLfit software (IDBS, UK) using formula 205.

[2] = test system: C-433 cells (human Ewing sarcoma cells); test: Proliferation of C-433 cells, intracellular ATP, CellTiter-Glo test; assay type: cell-based; details: Homo sapiens, 96 hours
Text: as §1, §2, §3, §4, §5, §6, §7, §8, §9, §10

AKT1 = AKT1 (Homo sapiens, UniProt P31749, S473D); test: Determination of the IC50 for AKT1 (HTRF); assay type: biochemical; details: AKT1 without PH domain, activated by PDK1
In short: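 HTRF assay of AKT1 (S473D) kinase activity on a biotinylated peptide substrate, with 100 μM ATP and 10 μM peptide in the initiating solution.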

[3] = test system: MCF7 cells (human breast carcinoma cells); test: Proliferation of MCF7 cells, intracellular ATP, CellTiter-Glo test; assay type: cell-based; details: Homo sapiens, MCF7, 96 hours
Text: as §1, §2, §3, §4, §5, §6, §7, §8, §9, §10

[4] = test system: MIA PaCa-2 cells (human pancreatic carcinoma cells); test: Proliferation of MIA PaCa-2 cells, intracellular ATP, CellTiter-Glo test; assay type: cell-based; details: 96 hours
Text: as §1, §2, §3, §4, §5, §6, §7, §8, §9, §10

AKT1, sequence (P31749 118-480 S473D limits assumed): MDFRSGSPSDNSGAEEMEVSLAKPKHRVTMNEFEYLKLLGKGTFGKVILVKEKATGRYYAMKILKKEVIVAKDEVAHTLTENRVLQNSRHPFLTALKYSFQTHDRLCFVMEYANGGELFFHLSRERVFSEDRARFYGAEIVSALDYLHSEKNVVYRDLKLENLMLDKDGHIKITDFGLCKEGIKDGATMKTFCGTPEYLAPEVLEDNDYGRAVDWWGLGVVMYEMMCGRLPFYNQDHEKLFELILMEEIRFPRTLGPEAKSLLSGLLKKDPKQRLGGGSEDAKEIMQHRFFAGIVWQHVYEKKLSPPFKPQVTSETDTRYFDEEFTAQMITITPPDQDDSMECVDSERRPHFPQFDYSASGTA

SMILES	IC50 [1]	IC50 [2]	IC50 (AKT1)	IC50 [3]	IC50 [4]	melting point
O=C(Nc1ccc2[nH]ncc2c1)N[C@@H](c1cc(F)cc(Cl)c1)[C@@H]1CCCCN1 [Ex 3, 1-{(S)-(3-Chloro-5-fluorophenyl)[(2S)-piperid-2-yl]methyl}-3-(1H-indazol-5-yl)urea]	280 nM	630 nM	< 100 nM	1100 nM	10000 nM	–
O=C(Nc1ccc2[nH]ncc2c1)N[C@@H](c1ccc(Cl)c(Cl)c1)[C@@H]1CCCCN1 [Ex 4, 1-{(S)-(3,4-Dichlorophenyl)[(2S)-piperid-2-yl]methyl}-3-(1H-indazol-5-yl)urea]	1200 nM	680 nM	< 100 nM	2700 nM	3420 nM	216 °C
O=C(Nc1ccc2[nH]ncc2c1)NC(c1cc(F)cc(Cl)c1)C1CCCCN1 (stereo not shown) [Ex 5, 1-[(3-Chloro-5-fluorophenyl)(piperid-2-yl)methyl]-3-(1H-indazol-5-yl)urea]	–	–	< 100 nM	1420 nM	7100 nM	185 °C
CN1CCCCC1C(NC(=O)Nc1ccc2[nH]ncc2c1)c1cc(F)cc(Cl)c1 (stereo not shown) [Ex 11, 1-[(3-Chloro-5-fluorophenyl)(1-methylpiperid-2-yl)methyl]-3-(1H-indazol-5-yl)urea]	–	–	< 100 nM	–	> 10000 nM	–
CN1CCCCC1C(NC(=O)Nc1ccc2[nH]nc(-c3ccncc3)c2c1)c1ccccc1 [Ex 13, 1-[(1-Methylpiperid-2-yl)(phenyl)methyl]-3-(3-pyrid-4-yl-1H-indazol-5-yl)urea((S,2S),(R,2R))]	–	–	100 to 500 nM	–	1450 nM	–
Cc1n[nH]c2ccc(NC(=O)NC(c3ccccc3)C3CCCCN3C)cc12 [Ex 18, 3-Methyl-5-({[(1-methylpiperid-2-yl)(phenyl)methyl]carbamoyl}amino)-1H-indazole ((S,2S),(R,2R))]	1050 nM	–	< 100 nM	5800 nM	6100 nM	–
CN1CCCCC1C(NC(=O)Nc1cc(F)c2[nH]ncc2c1)c1ccccc1 [Ex 21, 1-(7-Fluoro-1H-indazol-5-yl)-3-[(1-methylpiperid-2-yl)(phenyl)methyl]urea((S,2S),(R,2R))]	861 nM	–	100 to 500 nM	–	–	–
CN1CCCCC1C(NC(=O)Nc1ccc2[nH]nc(C#Cc3ccc(F)cc3)c2c1)c1ccccc1 [Ex 24, 1-{3-[(4-Fluorophenyl)ethynyl]-1H-indazol-5-yl}-3-[(1-methylpiperid-2-yl)(phenyl)methyl]urea((S,2S),(R,2R))]	–	–	< 100 nM	–	1300 nM	–
CN1CCCCC1C(NC(=O)Nc1ccc2[nH]nc(C#Cc3cccnc3)c2c1)c1ccccc1 [Ex 25, 1-[(1-Methylpiperid-2-yl)(phenyl)methyl]-3-[3-(pyrid-3-ylethynyl)-1H-indazol-5-yl]urea((S,2S),(R,2R))]	611 nM	288 nM	< 100 nM	1290 nM	–	–
S=C(Nc1ccc2[nH]ncc2c1)N[C@@H](c1ccc(Cl)c(Cl)c1)[C@@H]1CCCCN1 [Ex 31, 1-{(S)-(3,4-Dichlorophenyl)[(2S)-piperid-2-yl]methyl}-3-(1H-indazol-5-yl)thiourea]	2940 nM	–	< 100 nM	4450 nM	6250 nM	–
O=C(Nc1ccc2[nH]ncc2c1)OC(c1cc(Cl)cc(Cl)c1)C1CCCCN1 [Ex 34, (3,5-Dichlorophenyl)[piperid-2-yl]methyl 1H-indazol-5-ylcarbamate((S,2S),(R,2R))]	–	–	< 100 nM	–	2910 nM	–
O=C(Nc1ccc2[nH]ncc2c1)O[C@@H](c1cc(F)cc(Cl)c1)[C@@H]1CCCCN1 [Ex 35, (S)-(3-Chloro-5-fluorophenyl)[(2S)-piperid-2-yl]methyl 1H-indazol-5-ylcarbamate]	319 nM	–	< 100 nM	1050 nM	3100 nM	–
CN1CCCCC1C(OC(=O)Nc1ccc2[nH]ncc2c1)c1cc(F)cc(Cl)c1 (stereo not shown) [Ex 36, (3-Chloro-5-fluorophenyl)(1-methylpiperid-2-yl)methyl 1H-indazol-5-ylcarbamate]	2230 nM	–	< 100 nM	–	10000 nM	–
O=C(Nc1ccc2[nH]ncc2c1)O[C@H](c1ccc(Cl)c(Cl)c1)[C@H]1CCCCN1 [Ex 37, (R)-(3,4-Dichlorophenyl)[(2R)-piperid-2-yl]methyl 1H-indazol-5-ylcarbamate]	2370 nM	–	< 100 nM	–	2450 nM	–
O=C(Nc1ccc2[nH]ncc2c1)O[C@@H](c1ccc(Cl)c(Cl)c1)[C@@H]1CCCCN1 [Ex 38b, (S)-(3,4-Dichlorophenyl)[(2S)-piperid-2-yl]methyl 1H-indazol-5-ylcarbamate]	1710 nM	1790 nM	< 100 nM	2400 nM	–	–
O=C(Nc1ccc2[nH]ncc2c1)O[C@@H](c1cccc(Br)c1)[C@@H]1CCCCN1 [Ex 46]	600 nM	500 nM	< 100 nM	1300 nM	–	–
